# Experiments:
# Human M3 receptor = target: T1, Human M3 receptor (Homo sapiens, UniProt P20309); experiment: biochemical; type: binding; details: read-out: M3 Range
# T1 construct: purchased Perkin Elmer
# Human β2 adrenoceptor = target: T2, Human β2 adrenoceptor (Homo sapiens, UniProt P07550); experiment: β2 adrenoceptor radioligand binding assay
# T2 construct: purchased Perkin Elmer
# How it was run: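 Human β2 receptor membranes incubated 1 h at room temperature with 0.3 nM [125I]cyanopindolol and compound in pH 7.4 HEPES buffer (0.5% DMSO); 2 μM s-propranolol defined non-specific binding. Bound label counted after filtration; IC50 from competition curves, converted to Ki via Cheng–Prusoff.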
# T1 sequence (P20309 whole entry): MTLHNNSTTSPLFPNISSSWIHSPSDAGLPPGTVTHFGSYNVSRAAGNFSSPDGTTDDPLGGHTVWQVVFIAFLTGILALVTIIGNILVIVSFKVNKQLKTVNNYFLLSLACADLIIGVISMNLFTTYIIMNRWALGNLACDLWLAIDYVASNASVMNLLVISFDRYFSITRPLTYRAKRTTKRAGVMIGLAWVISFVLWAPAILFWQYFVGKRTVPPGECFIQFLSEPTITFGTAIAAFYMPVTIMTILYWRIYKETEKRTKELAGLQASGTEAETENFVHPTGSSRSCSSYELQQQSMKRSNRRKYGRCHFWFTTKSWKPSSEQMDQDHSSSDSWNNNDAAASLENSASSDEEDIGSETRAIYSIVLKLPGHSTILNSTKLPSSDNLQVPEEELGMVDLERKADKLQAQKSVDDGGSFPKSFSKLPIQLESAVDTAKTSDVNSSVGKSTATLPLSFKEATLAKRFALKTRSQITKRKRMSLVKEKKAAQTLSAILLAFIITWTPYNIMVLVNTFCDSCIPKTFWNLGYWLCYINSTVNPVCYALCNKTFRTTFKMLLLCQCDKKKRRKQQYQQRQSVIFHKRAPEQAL
# T2 sequence (P07550 whole entry): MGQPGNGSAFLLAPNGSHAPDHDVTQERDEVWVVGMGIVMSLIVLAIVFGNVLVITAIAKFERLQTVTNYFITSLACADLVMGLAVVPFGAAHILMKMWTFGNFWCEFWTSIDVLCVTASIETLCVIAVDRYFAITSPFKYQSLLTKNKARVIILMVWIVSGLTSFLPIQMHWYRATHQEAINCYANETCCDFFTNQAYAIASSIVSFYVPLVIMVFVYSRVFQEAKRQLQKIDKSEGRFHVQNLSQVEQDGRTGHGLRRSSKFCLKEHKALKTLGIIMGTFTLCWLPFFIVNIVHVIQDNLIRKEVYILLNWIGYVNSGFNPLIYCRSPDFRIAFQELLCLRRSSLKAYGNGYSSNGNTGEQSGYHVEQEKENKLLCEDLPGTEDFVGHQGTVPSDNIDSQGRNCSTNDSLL
Structure (SMILES),IC50 (Human M3 receptor) [nM],IC50 (Human β2 adrenoceptor) [nM]
"O=C(c1ccc(-c2cccc([C@](O)(C(=O)OCC3CCN(Cc4ccccc4)CC3)c3ccccc3)c2)cn1)N1CCC(CNC[C@H](O)c2ccc(O)c3[nH]c(=O)ccc23)CC1 [Compound 6C, (1-Benzylpiperidin-4-yl)methyl (S)-2-hydroxy-2-(3-(6-(4-((((R)-2-hydroxy-2-(8-hydroxy-2-oxo-1,2-dihydroquinolin-5-yl)ethyl)amino)methyl)piperidine-1-carbonyl)pyridin-3-yl)phenyl)-2-phenylacetate]",< 0.3,< 0.3
"O=C(c1ccc(-c2cccc([C@](O)(C(=O)OCC3CCN(Cc4ccccc4)CC3)c3ccccc3)c2)nc1)N1CCC(CNC[C@H](O)c2ccc(O)c3[nH]c(=O)ccc23)CC1 [Compound 6D, (1-Benzylpiperidin-4-yl)methyl (S)-2-hydroxy-2-(3-(5-(4-((((R)-2-hydroxy-2-(8-hydroxy-2-oxo-1,2-dihydroquinolin-5-yl)ethyl)amino)methyl)piperidine-1-carbonyl)pyridin-2-yl)phenyl)-2-phenylacetate]",0.3 to 3,< 0.3
"O=C(c1cncc(-c2cccc([C@](O)(C(=O)OCC3CCN(Cc4ccccc4)CC3)c3ccccc3)c2)c1)N1CCC(CNC[C@H](O)c2ccc(O)c3[nH]c(=O)ccc23)CC1 [Compound 6E, (1-Benzylpiperidin-4-yl)methyl (S)-2-hydroxy-2-(3-(5-(4-((((R)-2-hydroxy-2-(8-hydroxy-2-oxo-1,2-dihydroquinolin-5-yl)ethyl)amino)methyl)piperidine-1-carbonyl)pyridin-3-yl)phenyl)-2-phenylacetate]",0.3 to 3,< 0.3
"O=C(c1cccc(-c2cccc([C@](O)(C(=O)OCC3CCN(Cc4ccccc4)CC3)c3ccccc3)c2)n1)N1CCC(CNC[C@H](O)c2ccc(O)c3[nH]c(=O)ccc23)CC1 [Compound 6F, (1-Benzylpiperidin-4-yl)methyl (S)-2-hydroxy-2-(3-(6-(4-((((R)-2-hydroxy-2-(8-hydroxy-2-oxo-1,2-dihydroquinolin-5-yl)ethyl)amino)methyl)piperidine-1-carbonyl)pyridin-2-yl)phenyl)-2-phenylacetate]",0.3 to 3,0.3 to 3
"O=C(c1ccc(CNC[C@H](O)c2ccc(O)c3[nH]c(=O)ccc23)cc1)N1CCC(c2cccc([C@](O)(C(=O)OCC3CCN(Cc4ccccc4)CC3)c3ccccc3)c2)CC1 [Compound 7, (1-Benzylpiperidin-4-yl)methyl (S)-2-hydroxy-2-(3-(1-(4-((((R)-2-hydroxy-2-(8-hydroxy-2-oxo-1,2-dihydroquinolin-5-yl)ethyl)amino)methyl)benzoyl)piperidin-4-yl)phenyl)-2-phenylacetate]",0.3 to 3,0.3 to 3
"COc1cc(C(=O)N2CCC(c3cccc([C@](O)(C(=O)OCC4CCN(Cc5ccccc5)CC4)c4ccccc4)c3)CC2)ccc1CNC[C@H](O)c1ccc(O)c2[nH]c(=O)ccc12 [Compound 7A, (1-Benzylpiperidin-4-yl)methyl (S)-2-hydroxy-2-(3-(1-(4-((((R)-2-hydroxy-2-(8-hydroxy-2-oxo-1,2-dihydroquinolin-5-yl)ethyl)amino)methyl)-3-methoxybenzoyl)piperidin-4-yl)phenyl)-2-phenylacetate]",0.3 to 3,0.3 to 3
"COc1cc(CNC[C@H](O)c2ccc(O)c3[nH]c(=O)ccc23)ccc1C(=O)N1CCC(c2cccc([C@](O)(C(=O)OCC3CCN(Cc4ccccc4)CC3)c3ccccc3)c2)CC1 [Compound 7B, (1-Benzylpiperidin-4-yl)methyl (S)-2-hydroxy-2-(3-(1-(4-((((R)-2-hydroxy-2-(8-hydroxy-2-oxo-1,2-dihydroquinolin-5-yl)ethyl)amino)methyl)-2-methoxybenzoyl)piperidin-4-yl)phenyl)-2-phenylacetate]",0.3 to 3,> 3
"O=C(c1ccc(CCNC[C@H](O)c2ccc(O)c3[nH]c(=O)ccc23)cc1)N1CCC(c2cccc([C@](O)(C(=O)OCC3CCN(Cc4ccccc4)CC3)c3ccccc3)c2)CC1 [Compound 7C, (1-Benzylpiperidin-4-yl)methyl (S)-2-hydroxy-2-(3-(1-(4-(2-(((R)-2-hydroxy-2-(8-hydroxy-2-oxo-1,2-dihydroquinolin-5-yl)ethyl)amino)ethyl)benzoyl)piperidin-4-yl)phenyl)-2-phenylacetate]",0.3 to 3,< 0.3
"O=C(c1ccc2c(c1)CC(NC[C@H](O)c1ccc(O)c3[nH]c(=O)ccc13)C2)N1CCC(c2cccc([C@](O)(C(=O)OCC3CCN(Cc4ccccc4)CC3)c3ccccc3)c2)CC1 (stereo partly drawn) [Compound 7D, (1-Benzylpiperidin-4-yl)methyl (2S)-2-hydroxy-2-(3-(1-(2-(((R)-2-hydroxy-2-(8-hydroxy-2-oxo-1,2-dihydroquinolin-5-yl)ethyl)amino)-2,3-dihydro-1H-indene-5-carbonyl)piperidin-4-yl)phenyl)-2-phenylacetate]",< 0.3,0.3 to 3
"O=C(NCC(=O)N1CC=C(c2cccc([C@](O)(C(=O)OCC3CCN(Cc4ccccc4)CC3)c3ccccc3)c2)CC1)c1ccc(CCNC[C@H](O)c2ccc(O)c3[nH]c(=O)ccc23)cc1 [Compound 8, (1-Benzylpiperidin-4-yl)methyl (S)-2-hydroxy-2-(3-(1-((4-(2-(((R)-2-hydroxy-2-(8-hydroxy-2-oxo-1,2-dihydroquinolin-5-yl)ethyl)amino)ethyl)benzoyl)-glycyl)-1,2,3,6-tetrahydropyridin-4-yl)phenyl)-2-phenylacetate]",< 0.3,< 0.3
"COc1cc(CNC[C@H](O)c2ccc(O)c3[nH]c(=O)ccc23)ccc1C(=O)NCC(=O)N1CC=C(c2cccc([C@](O)(C(=O)OCC3CCN(Cc4ccccc4)CC3)c3ccccc3)c2)CC1 [Compound 8A, (1-Benzylpiperidin-4-yl)methyl (S)-2-hydroxy-2-(3-(1-((4-((((R)-2-hydroxy-2-(8-hydroxy-2-oxo-1,2-dihydroquinolin-5-yl)ethyl)amino)methyl)-2-methoxybenzoyl)glycyl)-1,2,3,6-tetrahydropyridin-4-yl)phenyl)-2-phenylacetate]",0.3 to 3,< 0.3
"C[C@@H](NC(=O)c1ccc(CNC[C@H](O)c2ccc(O)c3[nH]c(=O)ccc23)cc1)C(=O)N1CC=C(c2cccc([C@](O)(C(=O)OCC3CCN(Cc4ccccc4)CC3)c3ccccc3)c2)CC1 [Compound 8B, (1-Benzylpiperidin-4-yl)methyl (S)-2-hydroxy-2-(3-(1-((4-((((R)-2-hydroxy-2-(8-hydroxy-2-oxo-1,2-dihydroquinolin-5-yl)ethyl)amino)methyl)benzoyl)-D-alanyl)-1,2,3,6-tetrahydropyridin-4-yl)phenyl)-2-phenylacetate]",0.3 to 3,0.3 to 3
"C[C@H](NC(=O)c1ccc(CNC[C@H](O)c2ccc(O)c3[nH]c(=O)ccc23)cc1)C(=O)N1CC=C(c2cccc([C@](O)(C(=O)OCC3CCN(Cc4ccccc4)CC3)c3ccccc3)c2)CC1 [Compound 8C, (1-Benzylpiperidin-4-yl)methyl (S)-2-hydroxy-2-(3-(1-((4-((((R)-2-hydroxy-2-(8-hydroxy-2-oxo-1,2-dihydroquinolin-5-yl)ethyl)amino)methyl)benzoyl)-L-alanyl)-1,2,3,6-tetrahydropyridin-4-yl)phenyl)-2-phenylacetate]",0.3 to 3,0.3 to 3
